# In patent US8586552B2, “4,6-substituted 2,5-dideoxystreptamine aminoglycoside antibiotics” (SelectX Pharmaceuticals, Inc., priority 2012, dated 2013):
# Legend:
# [1] = tested on: Acinetobacter baumannii (Aba, ABWT, ATCC #BAA-747); test: MIC against Acinetobacter baumannii reference strain ABWT; assay type: cell-based
# [2] = tested on: Pseudomonas aeruginosa PR3 (high-level, efflux-mediated, pan-aminoglycoside resistance); test: MIC against Pseudomonas aeruginosa clinical isolate PR3; assay type: cell-based; details: Pseudomonas aeruginosa resistant strain PR3
# [3] = tested on: more than fifty resistant contemporary clinical isolates of Pseudomonas aeruginosa; test: MIC90 against panel of resistant clinical isolates of Pseudomonas aeruginosa; assay type: cell-based
# From the text: To assess this, a panel of more than fifty resistant contemporary clinical isolates of Pseudomonas aeruginosa were obtained from multiple sources including JMI Laboratories (North Liberty, Iowa), Pfizer (Groton, Conn.), Micromyx (Kalamazoo, Mich.), Dr. J. Chow (Wayne State University). Strains were characterized for resistance to a wide variety of classes of antibiotics including aminoglycosides, β-lactams and fluoroquinolones. […] This reflects the difficulty in treating clinical Pseudomonas aeruginosa infections. […] Using this stringent panel, we tested a subset of compounds of the invention (Table 4).
# panel of E. coli strains = test: MIC90 against a panel of E. coli strains; assay type: cell-based; details: in µg/mL
# [4] = tested on: Acinetobacter baumannii AB2; test: MIC against Acinetobacter baumannii clinical isolate AB2; assay type: cell-based
# From the text: Acinetobacter baumannii is another clinically important and very challenging gram negative pathogen. Members of the Acinetobacter genus, including baumannii, have a remarkable ability to upregulate and acquire resistance determinants. Coupled with its ability to survive for prolonged periods in a hospital environment, A. baumannii is an emerging threat for healthcare institutions globally. We acquired clinical isolates of Acinetobacter baumannii and used this panel to test compounds for anti-Acinetobacter activity. We first tested reference AGs against our panel of Aba strains.
# [5] = tested on: fifty resistant contemporary clinical isolates of Acinetobacter baumannii; test: MIC90 against panel of resistant clinical isolates of Acinetobacter baumannii; assay type: cell-based
# From the text: As in the case of Pseudomonas aeruginosa and Klebsiella pneumoniae, we considered whether the SAR observed against select Acinetobacter baumannii strains 1, 2 or 3 was indicative of general potency. […] Using this stringent Acinetobacter baumannii panel, we tested a subset of compounds of the invention.
# P. aeruginosa 6294 MLP-3 = test: Rat neutropenic thigh model; assay type: in vivo
# Protocol: The compound identified as SXP 2523 was selected for further testing in vivo. Twenty male Sprague Dawley rats were pre-treated with cyclophosphamide to render them neutropenic on day −4 and day −1 with 100 mg/kg and 75 mg/kg respectively. Rats were infected with P. aeruginosa 6294 MLP-3, via injection into the right thigh muscle of 0.1 mL per rat. Two hours post infection rats were treated intravenously with either SXP-2523 or amikacin in a total dose of 10 or 60 mg/kg, respectively. The test article and control agent were delivered at 2, 4, and 6 hours post infection. Five rats were treated with each drug concentration. One group of five rats was euthanized at initiation of treatment and thigh CFUs were processed (T=Rx). Twenty-four hours post infection rats were euthanized by CO2 inhalation. The right thigh muscles of the rats were aseptically removed, weighed, homogenized, serially diluted, and plated on MacConkey medium. The plates were incubated overnight at 37° C. in 5% CO2. CFU per gram of thigh was calculated by enumerating the plated colonies then adjusting for serial dilutions and the weight of the thigh. The following table 7 summarizes the results Table 6: […]
# [6] = Log CFU/thigh, total dose 10 mg/kg SXP-2523 or 60 mg/kg amikacin iv
compound,measurement,setting,value
NCCCNCC1OC(OC2C(NC(=O)C(O)CCN)CC(N)C(OC3OC(CN)C(O)CC3N)C2F)C(O)C(N)C1O (stereo not shown) [SXP 2523],MIC ABWT,[1],0.5 µg/mL
same,MIC PR3,[2],4 µg/mL
same,MIC90 Pseudomonas aeruginosa,[3],4 µg/mL
same,MIC90 E. coli,panel of E. coli strains,2
same,MIC AB2,[4],1 µg/mL
same,MIC90 Acinetobacter baumannii,[5],4 µg/mL
same,Change from 24 hr. control,P. aeruginosa 6294 MLP-3; [6],−0.71
same,Change from T = Rx controls,P. aeruginosa 6294 MLP-3; [6],2.37
same,Log CFU/thigh,"P. aeruginosa 6294 MLP-3; neutropenic male Sprague Dawley rats, iv at 2, 4, 6 h post infection, total dose 10 mg/kg SXP-2523 or 60 mg/kg amikacin, 24 h post infection",6.55 Log CFU/thigh
same,efficacy against P. aeruginosa in animal model,"P. aeruginosa 6294 MLP-3; rat neutropenic thigh model, total dose 10 mg/kg iv",effective against P. aeruginosa
